Results published in patent publication US11273126B2, “Amorphous dispersion of cyclopropanecarboxylic acid (5-{5-[N′-(2-chloro-6-methylbenzoyl) hydrazinocarbonyl]-2-methyl-phenylethynyl}-pyridin-2-yl) amide” (SUN PHARMA ADVANCED RESEARCH COMPANY LIMITED, priority 2017, dated 2022).

Test: Oral administration to dogs, plasma levels of compound of formula I (bioavailability)
Type: in vivo
Settings: dog, plasma level of compound of formula I
Protocol: Suitable amount of amorphous dispersion of Example I and the crystalline form of compound of formula I suspended in a vehicle were administered orally to dogs. Blood samples were withdrawn at various time intervals and the plasma levels of compound of formula I were recorded. The Cmax, AUC0 to 1 and AUC0-∞, in plasma are tabulated below.

AUC(0-inf): 388 ng·h/mL
AUC(0-t): 290 ng·h/mL
Cmax: 41 ng/mL
SMILES: Cc1ccc(C(=O)NNC(=O)c2c(C)cccc2Cl)cc1C#Cc1ccc(NC(=O)C2CC2)nc1 [Compound of formula I in a vehicle, cyclopropanecarboxylic acid (5-{5-[N′-(2-chloro-6-methylbenzoyl) hydrazinocarbonyl]-2-methyl-phenylethynyl}-pyridin-2-yl)amide]
